{"source": "patent US11078170B2", "about": "(Assembly Biosciences, Inc., priority 2017, dated 2021)", "tested_on": "HBV viral production from HepAD38 cells", "assay": "Activity of test compounds on viral production from HepAD38 cells (viral load by qPCR of HBV core sequence in supernatant)", "assay_type": "cell-based", "conditions": "Hepatitis B virus, 120 h, 5 days incubation, HBV DNA in supernatant by qPCR, top concentration 10 μM, read-out: Viral Load EC50 Activity range", "how_it_was_run": "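HepAD38 cells, 50,000/well in tetracycline-free 2% FBS medium, treated 5 days at 37° C. with compound from 10 μM top concentration. HBV DNA in supernatant quantified by TaqMan qPCR of core sequence against DNA standards, relative to DMSO wells; CellTiter-Glo viability read in parallel. EC50/CC50 from four-parameter logistic fit.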", "data": [{"smiles": "CN1[C@H](C(=O)Nc2ccc(F)c(Cl)c2)C[C@H](c2ccc(-c3ccc(C(F)(F)F)nc3)s2)NS1(=O)=O", "note": "[HBV-CSU-158-ISO-I, Cis-N-(3-chloro-4-fluorophenyl)-2-methyl-5-(5-(6-(trifluoromethyl)pyridin-3-yl)thiophen-2-yl)-1,2,6-thiadiazinane-3-carboxamide 1,1-dioxide]", "values": [{"measurement": "EC50", "result": "< 1000", "unit": "nM"}]}, {"smiles": "CN1[C@@H](C(=O)Nc2ccc(F)c(Cl)c2)C[C@@H](c2ccc(-c3ccc(C(F)(F)F)nc3)s2)NS1(=O)=O", "note": "[HBV-CSU-158-ISO-II, Cis-N-(3-chloro-4-fluorophenyl)-2-methyl-5-(5-(6-(trifluoromethyl)pyridin-3-yl)thiophen-2-yl)-1,2,6-thiadiazinane-3-carboxamide 1,1-dioxide]", "values": [{"measurement": "EC50", "result": "> 5000", "unit": "nM"}]}, {"smiles": "CN1[C@@H](C(=O)Nc2ccc(F)c(Cl)c2)C[C@@H](c2ccc(-c3cccnc3)s2)NS1(=O)=O", "note": "[HBV-CSU-159-ISO-I, Cis-N-(3-chloro-4-fluorophenyl)-2-methyl-5-(5-(pyridin-3-yl)thiophen-2-yl)-1,2,6-thiadiazinane-3-carboxamide 1,1-dioxide]", "values": [{"measurement": "EC50", "result": "1000 to 5000", "unit": "nM"}]}, {"smiles": "CN1[C@H](C(=O)Nc2ccc(F)c(Cl)c2)C[C@H](c2ccc(-c3cccnc3)s2)NS1(=O)=O", "note": "[HBV-CSU-159-ISO-II, Cis-N-(3-chloro-4-fluorophenyl)-2-methyl-5-(5-(pyridin-3-yl)thiophen-2-yl)-1,2,6-thiadiazinane-3-carboxamide 1,1-dioxide]", "values": [{"measurement": "EC50", "result": "< 1000", "unit": "nM"}]}, {"smiles": "CN1[C@H](C(=O)Nc2ccc(F)c(Cl)c2)C[C@H](c2ccc(-c3ccccn3)s2)NS1(=O)=O", "note": "[HBV-CSU-160-ISO-I, Cis-N-(3-chloro-4-fluorophenyl)-2-methyl-5-(5-(pyridin-2-yl)thiophen-2-yl)-1,2,6-thiadiazinane-3-carboxamide 1,1-dioxide]", "values": [{"measurement": "EC50", "result": "< 1000", "unit": "nM"}]}, {"smiles": "CN1[C@@H](C(=O)Nc2ccc(F)c(Cl)c2)C[C@@H](c2ccc(-c3ccccn3)s2)NS1(=O)=O", "note": "[HBV-CSU-160-ISO-II, Cis-N-(3-chloro-4-fluorophenyl)-2-methyl-5-(5-(pyridin-2-yl)thiophen-2-yl)-1,2,6-thiadiazinane-3-carboxamide 1,1-dioxide]", "values": [{"measurement": "EC50", "result": "1000 to 5000", "unit": "nM"}]}, {"smiles": "CN1[C@H](C(=O)Nc2ccc(F)c(Cl)c2)C[C@H](c2ccc(-c3cnn(C)c3)s2)NS1(=O)=O", "note": "[HBV-CSU-161-ISO-I, Cis-N-(3-chloro-4-fluorophenyl)-2-methyl-5-(5-(1-methyl-1H-pyrazol-4-yl)thiophen-2-yl)-1,2,6-thiadiazinane-3-carboxamide 1,1-dioxide]", "values": [{"measurement": "EC50", "result": "< 1000", "unit": "nM"}]}, {"smiles": "CN1[C@@H](C(=O)Nc2ccc(F)c(Cl)c2)C[C@@H](c2ccc(-c3cnn(C)c3)s2)NS1(=O)=O", "note": "[HBV-CSU-161-ISO-II, Cis-N-(3-chloro-4-fluorophenyl)-2-methyl-5-(5-(1-methyl-1H-pyrazol-4-yl)thiophen-2-yl)-1,2,6-thiadiazinane-3-carboxamide 1,1-dioxide]", "values": [{"measurement": "EC50", "result": "1000 to 5000", "unit": "nM"}]}, {"smiles": "CN1C(C(=O)Nc2ccc(F)c(Cl)c2)CC(c2ccc(-c3cccs3)s2)NS1(=O)=O", "note": "(stereo not drawn) [HBV-CSU-162, Cis-N-5-([2,2′-bithiophen]-5-yl)-N-(3-chloro-4-fluorophenyl)-2-methyl-1,2,6-thiadiazinane-3-carboxamide 1,1-dioxide]", "values": [{"measurement": "EC50", "result": "< 1000", "unit": "nM"}]}, {"smiles": "CN1[C@H](C(=O)Nc2ccc(F)c(Cl)c2)C[C@H](c2ccc(-c3cccs3)s2)NS1(=O)=O", "note": "[HBV-CSU-162-ISO-I, Cis-N-5-([2,2′-bithiophen]-5-yl)-N-(3-chloro-4-fluorophenyl)-2-methyl-1,2,6-thiadiazinane-3-carboxamide 1,1-dioxide]", "values": [{"measurement": "EC50", "result": "< 1000", "unit": "nM"}]}, {"smiles": "CN1[C@@H](C(=O)Nc2ccc(F)c(Cl)c2)C[C@@H](c2ccc(-c3cccs3)s2)NS1(=O)=O", "note": "[HBV-CSU-162-ISO-II, Cis-N-5-([2,2′-bithiophen]-5-yl)-N-(3-chloro-4-fluorophenyl)-2-methyl-1,2,6-thiadiazinane-3-carboxamide 1,1-dioxide]", "values": [{"measurement": "EC50", "result": "1000 to 5000", "unit": "nM"}]}, {"smiles": "CN1[C@H](C(=O)Nc2ccc(F)c(Cl)c2)C[C@H](c2ccc(-c3ccc(NS(C)(=O)=O)cc3)s2)NS1(=O)=O", "note": "[HBV-CSU-163-ISO-I, Cis-N-(3-chloro-4-fluorophenyl)-2-methyl-5-(5-(4-(methylsulfonamido)phenyl)thiophen-2-yl)-1,2,6-thiadiazinane-3-carboxamide 1,1-dioxide]", "values": [{"measurement": "EC50", "result": "< 1000", "unit": "nM"}]}, {"smiles": "CN1[C@H](C(=O)Nc2ccc(F)c(Cl)c2)C[C@H](c2cc(-c3ccc(C#N)c(F)c3)cs2)NS1(=O)=O", "note": "[HBV-CSU-164-ISO-I, Cis-N-(3-chloro-4-fluorophenyl)-5-(4-(4-cyano-3-fluorophenyl)thiophen-2-yl)-2-methyl-1,2,6-thiadiazinane-3-carboxamide 1,1-dioxide]", "values": [{"measurement": "EC50", "result": "< 1000", "unit": "nM"}]}, {"smiles": "CN1[C@@H](C(=O)Nc2ccc(F)c(Cl)c2)C[C@@H](c2cc(-c3ccc(C#N)c(F)c3)cs2)NS1(=O)=O", "note": "[HBV-CSU-164-ISO-II, Cis-N-(3-chloro-4-fluorophenyl)-5-(4-(4-cyano-3-fluorophenyl)thiophen-2-yl)-2-methyl-1,2,6-thiadiazinane-3-carboxamide 1,1-dioxide]", "values": [{"measurement": "EC50", "result": "> 5000", "unit": "nM"}]}, {"smiles": "CN1[C@H](C(=O)Nc2ccc(F)c(Cl)c2)C[C@H](c2cc(-c3ccc(C(F)(F)F)nc3)cs2)NS1(=O)=O", "note": "[HBV-CSU-166-ISO-I, Cis-N-(3-chloro-4-fluorophenyl)-2-methyl-5-(4-(6-(trifluoromethyl)pyridin-3-yl)thiophen-2-yl)-1,2,6-thiadiazinane-3-carboxamide 1,1-dioxide]", "values": [{"measurement": "EC50", "result": "< 1000", "unit": "nM"}]}, {"smiles": "CN1[C@@H](C(=O)Nc2ccc(F)c(Cl)c2)C[C@@H](c2cc(-c3ccc(C(F)(F)F)nc3)cs2)NS1(=O)=O", "note": "[HBV-CSU-166-ISO-II, Cis-N-(3-chloro-4-fluorophenyl)-2-methyl-5-(4-(6-(trifluoromethyl)pyridin-3-yl)thiophen-2-yl)-1,2,6-thiadiazinane-3-carboxamide 1,1-dioxide]", "values": [{"measurement": "EC50", "result": "> 5000", "unit": "nM"}]}, {"smiles": "CN1[C@H](C(=O)Nc2ccc(F)c(Cl)c2)C[C@H](c2cc(-c3cccnc3)cs2)NS1(=O)=O", "note": "[HBV-CSU-167-ISO-I, Cis-N-(3-chloro-4-fluorophenyl)-2-methyl-5-(4-(pyridin-3-yl)thiophen-2-yl)-1,2,6-thiadiazinane-3-carboxamide 1,1-dioxide]", "values": [{"measurement": "EC50", "result": "< 1000", "unit": "nM"}]}, {"smiles": "CN1[C@@H](C(=O)Nc2ccc(F)c(Cl)c2)C[C@@H](c2cc(-c3cccnc3)cs2)NS1(=O)=O", "note": "[HBV-CSU-167-ISO-II, Cis-N-(3-chloro-4-fluorophenyl)-2-methyl-5-(4-(pyridin-3-yl)thiophen-2-yl)-1,2,6-thiadiazinane-3-carboxamide 1,1-dioxide]", "values": [{"measurement": "EC50", "result": "> 5000", "unit": "nM"}]}, {"smiles": "CN1[C@@H](C(=O)Nc2ccc(F)c(Cl)c2)C[C@@H](c2cc(-c3ccccn3)cs2)NS1(=O)=O", "note": "[HBV-CSU-168-ISO-I, Cis-N-(3-chloro-4-fluorophenyl)-2-methyl-5-(4-(pyridin-2-yl)thiophen-2-yl)-1,2,6-thiadiazinane-3-carboxamide 1,1-dioxide]", "values": [{"measurement": "EC50", "result": "1000 to 5000", "unit": "nM"}]}, {"smiles": "CN1[C@H](C(=O)Nc2ccc(F)c(Cl)c2)C[C@H](c2cc(-c3ccccn3)cs2)NS1(=O)=O", "note": "[HBV-CSU-168-ISO-II, Cis-N-(3-chloro-4-fluorophenyl)-2-methyl-5-(4-(pyridin-2-yl)thiophen-2-yl)-1,2,6-thiadiazinane-3-carboxamide 1,1-dioxide]", "values": [{"measurement": "EC50", "result": "< 1000", "unit": "nM"}]}, {"smiles": "CN1[C@H](C(=O)Nc2ccc(F)c(Cl)c2)C[C@H](c2cc(-c3cnn(C)c3)cs2)NS1(=O)=O", "note": "[HBV-CSU-169-ISO-I, Cis-N-(3-chloro-4-fluorophenyl)-2-methyl-5-(4-(1-methyl-1H-pyrazol-4-yl)thiophen-2-yl)-1,2,6-thiadiazinane-3-carboxamide 1,1-dioxide]", "values": [{"measurement": "EC50", "result": "< 1000", "unit": "nM"}]}]}
